Test results as given in patent US11332470B2, “CXCR4 inhibitors and uses thereof” (X4 Pharmaceuticals, Inc., priority 2016, dated 2022).
Where two headings read alike, the source gives them in different places.

Legend:
[1] = Fraction of drug unbound to plasma proteins; format: in vitro ADME, Mouse; settings: read-out: Fu (p) % (fraction of drug unbound to plasma proteins)
[2] = Mouse brain uptake assay (pharmacokinetics and brain penetration after IV administration); format: in vivo, Male CD1 Mice; settings: male, 3 mg/kg IV; for Kp / Kp uu: CD1, brain and plasma; for Kp / Kp uu / clearance / half-life: mouse; for Kp uu: read-out: Kp, uu (unbound brain/unbound plasma drug concentration ratio); for clearance / half-life: CD1, plasma; for clearance: read-out: Cl (Clearance) (converted); for half-life: read-out: t½ (half life) (converted); for AUC(0-t): CD1
Description: Example 15: Pharmacokinetics and Brain Penetration Experiment to Determine Brain and Plasma Concentrations of Compounds after IV Administration to Male CD1 Mice or Male SD Rats
The study design (9 animals) consisted of administrating the drug (IV: 3 mg/kg (5 mL/kg) via tail vein injection) and collecting samples at terminal bleeding for plasma and brain at 0.083, 0.5 and 1 h. The blood collection was performed as follows: the animal was restrained manually and approximately 150 μL blood/time point was collected into a dipotassium EDTA tube via retro orbital puncture under anesthesia with isoflurane. The blood sample was put on ice and centrifuged to obtain a plasma sample (2000 g, 5 min under 4° C.) within 15 minutes. The brain collection was performed as follows: a mid-line incision was made in the animal's scalp and the skin was retracted. Using small bone cutters and rongeurs, the skull overlying the brain was removed. The brain was removed using a spatula and the brain rinsed with cold saline. The brain was placed in screw-top tubes, and the tubes were stored at −70° C. until analysis. The IV dosing solution was prepared in 50 mM citrate buffer (pH 4.0) at 0.6 mg/mL.
Plasma Sample Preparation:
An aliquot of 30 μL sample was added to […] containing 50 ng/mL IS (Dexamethasone). The mixture was vortexed for 5 min and centrifuged at 14,000 rpm for 5 min. An aliquot of 5 μL supernatant was injected for LC-MS/MS analysis.
Brain Sample Preparation:
An aliquot of 30 μL brain homogenate (brain:PBS=1:3, w/v) sample was added to 150 μL IS in MeCN (Dexamethasone, 50 ng/mL). The mixture was vortexed for 5 min and centrifuged at 14,000 rpm for 5 min. An aliquot of 5 μL supernatant was injected for LC-MS/MS analysis.
The sample analysis was performed on LCMS/MS-003 (API4000, triple quadruple) under the following conditions: positive ion, ESI, MRM detection using dexamethasone as internal standard. HPLC conditions: mobile phase A: H2O (0.025% formic acid (FA) with 1 mM NH4OAc); mobile phase B: MeOH (0.025% FA with 1 mM NH4OAc) on Waters X-Bridge C18 (2.1×50 mm, 2.5 μm) column at 60° C.
A similar experiment was performed with 4 time points taken from 0-24 h.

[3] = target: T1, CXCR4 (Jurkat cells expressing CXCR4) (Homo sapiens, UniProt P61073); assay: Chemokine (CXCL12-AF647) binding inhibition assay; settings: CXCL12-AF647 25 ng/mL, read-out: IC50 CXCL-12 binding Jurkat
T1 construct: Jurkat cells expressing CXCR4; endogenous in cells; host or cells: Jurkat
T1 sequence (P61073 whole entry): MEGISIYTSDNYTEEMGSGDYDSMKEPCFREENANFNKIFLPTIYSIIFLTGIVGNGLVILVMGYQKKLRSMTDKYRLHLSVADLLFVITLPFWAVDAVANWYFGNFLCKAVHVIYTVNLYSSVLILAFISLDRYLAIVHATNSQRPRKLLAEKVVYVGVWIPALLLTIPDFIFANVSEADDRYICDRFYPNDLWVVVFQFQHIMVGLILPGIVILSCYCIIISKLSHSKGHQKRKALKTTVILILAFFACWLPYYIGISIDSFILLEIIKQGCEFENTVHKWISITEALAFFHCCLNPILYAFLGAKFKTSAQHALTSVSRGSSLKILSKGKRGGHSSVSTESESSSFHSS
How it was run: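 Cells in HBSS, 20 mM HEPES, 0.2% BSA, pH 7.4, preincubated 15 min at room temperature with compound, then 25 ng/mL CXCL12-AF647 for 30 min. After washing and paraformaldehyde fixation, bound ligand read by flow cytometry; percent inhibition calculated from MFI relative to unlabeled and ligand-only controls.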

CXCR4 (U87.CXCR4 cells) = target: T2, CXCR4 (U87.CXCR4 cells) (Homo sapiens, UniProt P61073); assay: Intracellular CXCL-12-induced calcium mobilization assay (FLIPR); format: cell-based; settings: CXCL-12 25-50 ng/mL, read-out: IC50 CXCL-12 Ca2+ flux U87.CXCR4+
T2 construct: expressed in transfected cells; host or cells: U87 (U87.CXCR4)
T2 sequence (P61073 whole entry): as above
How it was run: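 U87.CXCR4 cells were loaded with 4 μM Fluo-2 AM for 45 min at 37 °C in HBSS/20 mM HEPES/0.2% BSA, pH 7.4. Calcium flux induced by CXCL-12 (25-50 ng/mL) was monitored kinetically by FLIPR fluorescence at 37 °C.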

[4] = 0-1 h, 3 time points, read-out: Kp (brain/plasma drug concentration ratio, AUC last(b)/AUC last(p))
[5] = mouse brain, time zero to 1 hr, 3 time points, read-out: AUClast (b) (area under the brain drug concentration-time curve)
[6] = mouse plasma, time zero to 1 hr, 3 time points, read-out: AUClast (p) (area under the plasma drug concentration-time curve)
[7] = 0-24 h, 4 time points, read-out: Kp (brain/plasma drug concentration ratio)
[8] = mouse brain, 0-24 h, 4 time points, read-out: AUClast (b) (area under the brain drug concentration-time curve)
[9] = mouse plasma, 0-24 h, 4 time points, read-out: AUClast (p) (area under the plasma drug concentration-time curve)

fraction unbound ([1]; Table 9, mouse)	Kp [2, 4]	Kp uu ([2]; 0-1 h, 3 time points)	clearance ([2]; 0-1 h, 3 time points) [mL/min/kg]	half-life ([2]; 0-1 h, 3 time points) [h]	AUC(0-t) [2, 5] [ng·h/mL]	AUC(0-t) [2, 6] [ng·h/mL]	IC50 [3] [nM]	IC50 (CXCR4 (U87.CXCR4 cells)) [nM]	fraction unbound ([1]; Table 10, mouse)	Kp [2, 7]	Kp uu ([2]; 0-24 h, 4 time points)	clearance ([2]; 0-24 h, 4 time points) [mL/min/kg]	half-life ([2]; 0-24 h, 4 time points) [h]	AUC(0-t) [2, 8] [ng·h/mL]	AUC(0-t) [2, 9] [ng·h/mL]	SMILES
0.127	1.86	1.11	140	0.269	742	400	0.01 to 100	100 to 1000	–	–	–	–	–	–	–	CN1CCN(c2cccc3[nH]c(CN4CCCC4c4ncccc4Cl)nc23)CC1 (stereo not drawn) [Compound I-26]
–	–	–	–	–	–	–	100 to 1000	100 to 1000	0.455	0.53	0.07	66.8	4.29	394	737	Cc1cccnc1C1CCCN1Cc1cn2c(N3CCN(C)C4(CC4)C3)cccc2n1 (stereo not drawn) [Compound I-29]
–	–	–	–	–	–	–	0.01 to 100	100 to 1000	0.05	37.2	5.95	235	0.275	7260	195	Cc1cccnc1C1CCCN1Cc1nc2cccc(N3CCN(C4CC4)CC3)c2[nH]1 (stereo not drawn) [Compound I-31]
0.239	0.77	0.22	33.2	5.33	210	271	0.01 to 100	0.01 to 100	–	–	–	–	–	–	–	CN1CCN(c2c(CN3CCCC3c3ccccn3)nc3ccccn23)CC1 (stereo not drawn) [Compound I-41]
0.133	1.21	0.48	25.5	3.87	518	427	0.01 to 100	0.01 to 100	–	–	–	–	–	–	–	CN1CCN(c2c(CN3CCCC3c3ccccn3)nc3ccc(F)cn23)CC1 (stereo not drawn) [Compound I-63]
0.148	1.41	1.99	25	3.64	736	523	0.01 to 100	0.01 to 100	–	–	–	–	–	–	–	CN1CCN(c2c(CN3CCCC3c3nccs3)nc3ccccn23)CC1 (stereo not drawn) [Compound I-70]
